Source: publication PMC10610505, “Synthesis and Biological Evaluation of Some New 3-Aryl-2-thioxo-2,3-dihydroquinazolin-4(1H)-ones and 3-Aryl-2-(benzylthio)quinazolin-4(3H)-ones as Antioxidants; COX-2, LDHA, α-Glucosidase and α-Amylase Inhibitors; and Anti-Colon Carcinoma and Apoptosis-Inducing Agents” (Pharmaceuticals, 2023)
Where “and” joins values, the source holds several entries; their conditions need not be identical. Equal values may be shown once. Read-outs that look alike come from different tables or passages of the source.

Columns and labels:
[1] = system: caspase-9; assay: Western blot of caspase-9 in cell lysates; format: cell-based, human; settings: 50 µg/mL, 48 h
Description: (§1) Furthermore, in order to confirm the implication of these compounds in the apoptotic pathways trigged by caspases, the proteins levels of caspases 8 and 9 were evaluated using Western blot analysis for the HCT-116 and LoVo carcinoma cells lysates after treatment with compounds 3a and 3f (50 µg/mL for 48 h); the untreated cells were used as a negative control.
(§2) In order to determine the levels of production of caspases 8 and 9 by the treated carcinoma cells, Western blot analysis was carried out using a FLAG® Western Detection Kit (Agilent Technologies, USA). Exponentially growing HCT-116 and LoVo cells were treated with 50 µg/mL of derivatives 3a and 3f for 48 h. After incubation, the cells were harvested and lysed using a Lysis buffer consisting of 10 mM of Tris, 100 mM of NaCl, 25 mM of ethylenediaminetetra aceticacid (EDTA), 25 mM of Ethylene glycol bis(2-aminoethyl)tetraacetic acid (EGTA), 0.1% Sodium dodecyl sulfate (SDS), 1% (v/v) Triton X-100 and 2% (v/v) NP-40 (pH 7.4), with a 1:200 protease inhibitor cocktail (Sigma-Adrich) and a 1:300 phosphatase inhibitor cocktail tablet (Roche Applied Science, Mannheim, Germany). The protein concentrations of each sample were determined calorimetrically using the Bradford method before proceeding to carry out the Western blotting. Equal amounts (20 µg) of the protein samples were mixed and boiled with SDS Loading buffer for 10 min, allowed to cool on ice and then loaded into SDS-polyacrylamide gel and separated using a Cleaver electrophoresis unit (Cleaver, Warwickshire, UK), before being transferred onto polyvinylidene fluoride (PVDF) membranes (Bio-Rad, USA) for 30 min using a Semi-dry Electroblotter (Biorad, USA) at 2.5 A and 25 V for 30 min. The membrane was blocked with 5% nonfat dry milk in TBS-T for two hours at room temperature, in order to reduce non-specific protein interactions between the membrane and the antibody. The blocked membrane was incubated overnight at 4 °C with primary antibodies (Cell Signaling Technology, Massachusetts, USA) and β-actin (Sigma). […] Briefly, the membranes were incubated for 1 min with a mixture of equal volumes of ECL solution A and ECL solution B. The chemiluminescent signals were captured using a CCD camera-based imager (Chemi Doc imager, Biorad, USA), and the bands’ intensities were then measured using ImageLab v3.0 (Bio-Rad). […] The proteins were detected using an enhanced chemiluminescence (ECL) detection system (Thermo Fischer Scientific, USA). The intensities of the bands were quantified using the NIH ImageJ software v3.0.1 (http://rsb.info.nih.gov/ij/).

[2] = system: HCT-116 human colon carcinoma cells; assay: Viability assay (LDH release), HCT-116; format: cell-based; settings: for viability at 200 µg/mL: HCT-116, 48 h, read-out: Mean % of viable cells ± SD, HCT-116
How it was run: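 HCT-116 human colon carcinoma cells were cultured for 24 h at 37 °C in a humidified 5% CO2 incubator. Samples diluted in Dulbecco’s Modified Eagle’s Medium with 10% FBS were then added. Lactate dehydrogenase released from damaged cells was measured in supernatants by ELISA end-point reading at 550 nm. Controls were 0.1% Triton X-100 (positive) and assay medium alone (negative).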

[3] = system: LoVo human colon carcinoma cells; assay: Viability assay (LDH release), LoVo; format: cell-based; settings: for viability at 200 µg/mL: 48 h, read-out: Mean % of viable cells ± SD, LoVo; for IC50: from concentration–response curves
How it was run: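 LoVo human colon carcinoma cells were grown for 24 h at 37 °C in a humidified 5% CO2 incubator in Dulbecco's Modified Eagle's Medium containing 10% FBS, then exposed to test samples for 48 h. Lactate dehydrogenase released into the supernatant was measured by ELISA end-point assay at 550 nm, using 0.1% Triton X-100 as positive control and medium alone as negative control. Viability was reported as mean % ± SD (n = 3) and compared against HUVEC cells.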

[4] = system: caspase-8; assay: Western blot of caspase-8 in cell lysates; format: cell-based, human; settings: 50 µg/mL, 48 h
Description: as §1, §2

[5] = Viability assay (LDH release), HUVEC; format: cell-based, human; settings: human
Description: The samples were diluted in Dulbecco’s Modified Eagle’s Medium, consisting of 10% fetal bovine serum (FBS), added to cells grown and cultured for 24 h in a 5% CO2-humidified incubator at 37 °C. Thereafter, the activity of lactate dehydrogenase released from damaged cells was determined in the collected supernatant aliquots using an ELISA end-point assay (Benchmark Plus, Bio-Rad, CA, USA); 0.1% Triton X-100 in the assay medium and the assay medium only were used as the positive and negative controls, respectively. Cell viability was expressed as a relative percentage of the OD values (at 550 nm) for compound-treated cells (final concentration of 200 µg /mL) and the negative control, which was shown as the mean % ± SD (n = 3). The results of the viability assays for the potential cytotoxic candidates were compared with the % of viable human umbilical vein endothelial cells (HUVEC) at the same concentration. These cells were grown in Dulbecco’s Modified Eagle’s Medium (PAN-Biotech; Barcelona, Spain) containing 10% FBS (Sigma Aldrich; St. Quentin-Fallavier, France), 2 mM Glutamine (Sigma Aldrich), 100 units/mL penicillin and […] streptomycin (Life Technologies; Paisley, UK).

[6] = Homo sapiens, HCT-116, from concentration–response curves
[7] = from concentration–response curves

## O=c1c2cc(Cl)ccc2[nH]c(=S)n1-c1cccc(C(F)(F)F)c1 [Compound 3a, 6-Chloro-2-thioxo-3-(3-trifluoromethyl-phenyl)-2,3-dihydro-1H-quinazolin-4-one]
[1]; lysates of HCT-116
  Increase in expression level of caspase-9: 3.6 times
[1]; lysates of LoVo
  Increase in expression level of caspase-9: 7.2 times
[2]; Homo sapiens
  viability at 200 µg/mL: 26.8 ± 1.26%
[2]; [6]
  IC50: 298 µM and 106 µg/mL
[2]; [7]
  IC50: 298 µM
[3]; Homo sapiens, LoVo
  viability at 200 µg/mL: 23.5 ± 1.5%
  IC50: 294 µM and 105 µg/mL
[3]
  IC50: 294 µM
[4]; lysates of HCT-116
  Increase in expressional level of caspase 8: 2.3 times
[4]; lysates of LoVo
  Increase in expressional level of caspase 8: 5.1 times
[5]; human umbilical vein endothelial cells (HUVEC), 200 µg/mL, read-out: Mean % of viable cells ± SD, HUVEC
  viability at 200 µg/mL: 97 ± 2.65%

## O=c1c2cc(Cl)ccc2[nH]c(=S)n1-c1ccc([N+](=O)[O-])cc1 [Compound 3f, 6-Chloro-3-(4-nitro-phenyl)-2-thioxo-2,3-dihydro-1H-quinazolin-4-one]
[1]; lysates of HCT-116
  Increase in expression level of caspase-9: 3.1 times
[1]; lysates of LoVo
  Increase in expression level of caspase-9: 4.8 times
[2]; Homo sapiens
  viability at 200 µg/mL: 4.67 ± 0.577%
[2]; [6]
  IC50: 324 µM and 108 µg/mL
[2]; [7]
  IC50: 324 µM
[3]; Homo sapiens, LoVo
  viability at 200 µg/mL: 22.7 ± 2.08%
  IC50: 384 µM and 128 µg/mL
[3]
  IC50: 384 µM
[4]; lysates of HCT-116
  Increase in expressional level of caspase 8: 2.2 times
[4]; lysates of LoVo
  Increase in expressional level of caspase 8: 4.1 times
[5]
  viability at 200 µg/mL: 99.67 ± 0.577%
